This data set is described as follows: Retest of solid form by PXRD after storage. In kind it is physicochemical. To be noted: after 1 month storage. Here is the method:
Unless recited otherwise, X-Ray powder diffraction data was obtained by using methods known in the art using a SCINTAG powder X-Ray diffractometer model X'TRA equipped with a solid-state detector. Copper radiation of 1.5418 Å was used. A round aluminum sample holder with zero background was used. The scanning parameters included: range: 2-40 degrees two-theta; scan mode: continuous scan; step size: 0.05 deg.; and a rate of 3 deg/min.
The product was isolated by vacuum filtration and dried at 40° C. for 16 hours to obtain STG lactate crystalline form L3.

With `CC(O)C(=O)O.N[C@@H](CC(=O)N1CCn2c(nnc2C(F)(F)F)C1)Cc1cc(F)c(F)cc1F` [Form L3, Sitagliptin lactate], the “Polymorphic form found by PXRD after storage” value is reported as “transform to form L1”.

Values taken from patent US8329696B2, “Solid state forms of sitagliptin salts” (Teva Pharmaceuticals Industries Ltd., priority 2009, dated 2012).
